These are literature values, as cited in patent US9119854B2, “Methods for treating cancer using combination therapy” (CELGENE CORPORATION, priority 2013, dated 2015).

The target of one data set is CRBN (Homo sapiens, UniProt Q96SW2). Particulars: in vitro; Ito et al., Science 2010.
The target in another data set is BTK (Homo sapiens, UniProt Q06187). Particulars: enzymatic and cellular assays; the '610 publication.

Each structure is given as a SMILES string.

Chain of CRBN (Q96SW2 whole entry): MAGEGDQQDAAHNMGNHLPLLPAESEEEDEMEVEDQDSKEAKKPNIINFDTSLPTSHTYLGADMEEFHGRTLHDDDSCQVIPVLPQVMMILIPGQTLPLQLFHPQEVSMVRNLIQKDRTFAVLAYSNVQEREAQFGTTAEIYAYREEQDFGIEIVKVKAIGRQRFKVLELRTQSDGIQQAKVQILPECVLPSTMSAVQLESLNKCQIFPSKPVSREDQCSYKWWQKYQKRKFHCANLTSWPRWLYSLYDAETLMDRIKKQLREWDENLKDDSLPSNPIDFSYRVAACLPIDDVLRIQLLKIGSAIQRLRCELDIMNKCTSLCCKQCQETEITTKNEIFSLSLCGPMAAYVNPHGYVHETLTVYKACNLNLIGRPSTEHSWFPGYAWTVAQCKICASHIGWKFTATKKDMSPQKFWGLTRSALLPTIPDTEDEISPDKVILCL
Chain of CRBN (Q16531 whole entry partner): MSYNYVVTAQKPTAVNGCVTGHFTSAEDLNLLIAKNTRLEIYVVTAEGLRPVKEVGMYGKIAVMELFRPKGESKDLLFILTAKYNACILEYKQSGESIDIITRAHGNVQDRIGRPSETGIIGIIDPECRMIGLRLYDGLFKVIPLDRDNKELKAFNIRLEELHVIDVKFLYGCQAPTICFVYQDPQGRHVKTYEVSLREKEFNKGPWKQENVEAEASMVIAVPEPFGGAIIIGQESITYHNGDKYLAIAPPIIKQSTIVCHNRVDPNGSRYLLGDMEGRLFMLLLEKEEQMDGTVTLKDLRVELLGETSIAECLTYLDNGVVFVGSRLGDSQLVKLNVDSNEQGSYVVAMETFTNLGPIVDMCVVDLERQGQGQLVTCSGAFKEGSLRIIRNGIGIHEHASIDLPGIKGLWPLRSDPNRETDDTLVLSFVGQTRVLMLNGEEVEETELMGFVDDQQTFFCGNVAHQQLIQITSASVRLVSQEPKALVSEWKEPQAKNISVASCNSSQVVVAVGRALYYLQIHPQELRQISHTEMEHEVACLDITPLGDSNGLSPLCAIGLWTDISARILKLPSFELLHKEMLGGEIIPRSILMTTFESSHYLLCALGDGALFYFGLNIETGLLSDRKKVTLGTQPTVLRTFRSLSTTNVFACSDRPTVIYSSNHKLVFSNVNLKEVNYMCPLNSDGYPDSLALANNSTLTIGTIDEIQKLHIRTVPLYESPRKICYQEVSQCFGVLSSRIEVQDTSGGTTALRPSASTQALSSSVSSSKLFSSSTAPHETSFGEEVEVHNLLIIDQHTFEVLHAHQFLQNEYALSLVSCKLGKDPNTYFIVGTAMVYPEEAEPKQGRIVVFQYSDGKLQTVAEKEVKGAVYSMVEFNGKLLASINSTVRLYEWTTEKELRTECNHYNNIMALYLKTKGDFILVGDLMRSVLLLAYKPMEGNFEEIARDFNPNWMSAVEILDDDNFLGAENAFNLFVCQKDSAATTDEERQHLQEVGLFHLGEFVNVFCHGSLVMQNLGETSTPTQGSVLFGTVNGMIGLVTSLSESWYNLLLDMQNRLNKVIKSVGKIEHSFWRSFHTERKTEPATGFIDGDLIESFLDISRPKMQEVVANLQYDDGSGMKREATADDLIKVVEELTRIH
Chain of CRBN (Q13619 whole entry partner): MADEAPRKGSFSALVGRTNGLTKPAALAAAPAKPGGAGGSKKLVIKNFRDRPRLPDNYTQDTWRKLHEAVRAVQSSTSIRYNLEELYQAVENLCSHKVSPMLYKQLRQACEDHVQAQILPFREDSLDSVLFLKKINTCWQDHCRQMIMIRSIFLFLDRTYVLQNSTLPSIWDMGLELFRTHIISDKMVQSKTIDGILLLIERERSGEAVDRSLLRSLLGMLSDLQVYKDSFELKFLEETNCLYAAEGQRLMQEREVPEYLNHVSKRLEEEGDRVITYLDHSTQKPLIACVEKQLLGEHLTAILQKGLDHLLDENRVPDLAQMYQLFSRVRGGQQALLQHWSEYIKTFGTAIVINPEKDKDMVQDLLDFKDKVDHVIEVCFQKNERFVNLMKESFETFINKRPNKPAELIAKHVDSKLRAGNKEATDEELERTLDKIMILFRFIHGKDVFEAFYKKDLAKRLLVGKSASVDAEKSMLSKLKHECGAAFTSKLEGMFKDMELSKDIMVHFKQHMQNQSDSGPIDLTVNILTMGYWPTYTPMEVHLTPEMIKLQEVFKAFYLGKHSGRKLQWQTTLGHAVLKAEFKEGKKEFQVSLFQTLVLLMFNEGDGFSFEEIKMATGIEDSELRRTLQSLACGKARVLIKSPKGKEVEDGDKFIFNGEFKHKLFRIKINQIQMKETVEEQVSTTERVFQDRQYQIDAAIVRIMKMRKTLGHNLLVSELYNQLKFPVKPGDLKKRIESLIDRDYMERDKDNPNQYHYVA
Chain of CRBN (P62877 whole entry partner): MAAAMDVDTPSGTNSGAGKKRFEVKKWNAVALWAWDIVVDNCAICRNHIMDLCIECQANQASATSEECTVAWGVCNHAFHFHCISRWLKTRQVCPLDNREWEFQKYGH
Chain of BTK (Q06187 whole entry, species assumed): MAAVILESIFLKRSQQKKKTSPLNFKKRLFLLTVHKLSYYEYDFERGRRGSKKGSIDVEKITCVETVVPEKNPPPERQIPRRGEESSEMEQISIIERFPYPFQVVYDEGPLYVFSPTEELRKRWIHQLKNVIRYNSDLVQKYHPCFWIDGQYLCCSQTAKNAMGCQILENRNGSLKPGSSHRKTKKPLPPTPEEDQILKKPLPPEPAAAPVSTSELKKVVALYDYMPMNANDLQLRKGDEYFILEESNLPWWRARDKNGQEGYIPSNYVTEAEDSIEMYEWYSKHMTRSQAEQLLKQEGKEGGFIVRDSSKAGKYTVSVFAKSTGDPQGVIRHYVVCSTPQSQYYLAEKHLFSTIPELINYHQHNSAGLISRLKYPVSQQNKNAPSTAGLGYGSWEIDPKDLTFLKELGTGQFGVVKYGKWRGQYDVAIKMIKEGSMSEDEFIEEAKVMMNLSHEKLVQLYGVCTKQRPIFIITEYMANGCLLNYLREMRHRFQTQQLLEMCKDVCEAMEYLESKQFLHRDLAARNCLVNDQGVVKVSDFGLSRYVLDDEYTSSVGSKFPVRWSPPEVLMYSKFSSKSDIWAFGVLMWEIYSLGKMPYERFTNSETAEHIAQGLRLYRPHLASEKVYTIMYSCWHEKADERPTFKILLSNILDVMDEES

Regarding `O=C1CCC(N2C(=O)c3ccccc3C2=O)C(=O)N1` (stereo not drawn) [thalidomide], the “auto-ubiquitination of CRBN” value at CRBN is listed as “able to inhibit”.

For the compound `C=CC(=O)Nc1cccc(Nc2nc(Nc3ccc(OCCOC)cc3)ncc2F)c1` [Compound AA, N-(3-(5-fluoro-2-(4-(2-methoxyethoxy)phenylamino)pyrimidin-4-ylamino)phenyl)acrylamide], the “B-cell proliferation and activation” value in the data set with B-cell is listed as “found to inhibit”. Further, on BTK, the “inhibition of BTK” value is given as “covalent, irreversible inhibition”.
